# Test results as given in ChEMBL document CHEMBL1150577, “Inhibition of glucose and dehydroascorbic acid uptakes by resveratrol in human transformed myelocytic cells” (J Nat Prod, 2001).
# pKi: −log10 of the molar value. Activity calls are given as the source filed them. The calls are words filed in the database; no cut-off is given here.
# Tests used:
# U-937 [1] = assay: Inhibition of 2-[1,2-3H(N)]deoxy-D-glucose uptake in human U937 cells at 73 uM by scintillation spectrometry in presence of buffer containing NaCl and Na2HPO4; assay type: functional
# HL-60 [2] = assay: Inhibition of 2-[1,2-3H(N)]deoxy-D-glucose uptake in human HL60 cells at 75 uM by scintillation spectrometry in presence of buffer containing NaCl and Na2HPO4; assay type: functional
# U-937 [3] = assay: Inhibition of 2-[1,2-3H(N)]deoxy-D-glucose uptake in human U937 cells by Michaelis-Menten plot; assay type: functional, cell-based
# HL-60 [4] = assay: Inhibition of 2-[1,2-3H(N)]deoxy-D-glucose uptake in human HL60 cells by Michaelis-Menten plot; assay type: functional, cell-based
# U-937 [5] = assay: Inhibition of 2-[1,2-3H(N)]deoxy-D-glucose uptake in human U937 cells by scintillation spectrometry in presence of sodium-free buffer; assay type: functional, cell-based
# HL-60 [6] = assay: Inhibition of 2-[1,2-3H(N)]deoxy-D-glucose uptake in human HL60 cells by scintillation spectrometry in presence of sodium-free buffer; assay type: functional, cell-based
# U-937 [7] = assay: Inhibition of 2-[1,2-3H(N)]deoxy-D-glucose uptake in human U937 cells at >500 uM by scintillation spectrometry in presence of buffer containing NaCl and Na2HPO4; assay type: functional
# HL-60 [8] = assay: Inhibition of 2-[1,2-3H(N)]deoxy-D-glucose uptake in human HL60 cells at >500 uM by scintillation spectrometry in presence of buffer containing NaCl and Na2HPO4; assay type: functional
# U-937 [9] = assay: Inhibition of 2-[1,2-3H(N)]deoxy-D-glucose uptake in human U937 cells at >100 uM by scintillation spectrometry in presence of sodium-free buffer; assay type: functional
# HL-60 [10] = assay: Inhibition of 2-[1,2-3H(N)]deoxy-D-glucose uptake in human HL60 cells at >100 uM by scintillation spectrometry in presence of sodium-free buffer; assay type: functional
# U-937 [11] = assay: Inhibition of [14C]dehydroascorbic acid uptake in human U937 cells by scintillation spectrometry in presence of buffer containing NaCl and Na2HPO4; assay type: functional, cell-based
# HL-60 [12] = assay: Inhibition of [14C]dehydroascorbic acid uptake in human HL60 cells by scintillation spectrometry in presence of buffer containing NaCl and Na2HPO4; assay type: functional, cell-based
# U-937 [13] = assay: Inhibition of [14C]dehydroascorbic acid uptake in human U937 cells at 38 uM by scintillation spectrometry in presence of buffer containing NaCl and Na2HPO4; assay type: functional
# HL-60 [14] = assay: Inhibition of [14C]dehydroascorbic acid uptake in human HL60 cells at 32 uM by scintillation spectrometry in presence of buffer containing NaCl and Na2HPO4; assay type: functional
# U-937 [15] = assay: Inhibition of [14C]dehydroascorbic acid uptake in human U937 cells by Michaelis-Menten plot; assay type: functional, cell-based
# U-937 [16] = assay: Inhibition of [14C]dehydroascorbic acid uptake in human U937 cells by scintillation spectrometry in presence of sodium-free buffer; assay type: functional, cell-based
# HL-60 [17] = assay: Inhibition of [14C]dehydroascorbic acid uptake in human HL60 cells by scintillation spectrometry in presence of sodium-free buffer; assay type: functional, cell-based
# [18] = target: T1, Solute carrier family 2, facilitated glucose transporter member 1 (Rattus norvegicus) (UniProt P11167); assay: Blockade of rat Glut1 expressed in CHO cells assessed as inhibition of 2-[1,2-3H(N)]deoxy-D-glucose uptake by scintillation spectrometry; assay type: cell-based
# T1 sequence (whole entry): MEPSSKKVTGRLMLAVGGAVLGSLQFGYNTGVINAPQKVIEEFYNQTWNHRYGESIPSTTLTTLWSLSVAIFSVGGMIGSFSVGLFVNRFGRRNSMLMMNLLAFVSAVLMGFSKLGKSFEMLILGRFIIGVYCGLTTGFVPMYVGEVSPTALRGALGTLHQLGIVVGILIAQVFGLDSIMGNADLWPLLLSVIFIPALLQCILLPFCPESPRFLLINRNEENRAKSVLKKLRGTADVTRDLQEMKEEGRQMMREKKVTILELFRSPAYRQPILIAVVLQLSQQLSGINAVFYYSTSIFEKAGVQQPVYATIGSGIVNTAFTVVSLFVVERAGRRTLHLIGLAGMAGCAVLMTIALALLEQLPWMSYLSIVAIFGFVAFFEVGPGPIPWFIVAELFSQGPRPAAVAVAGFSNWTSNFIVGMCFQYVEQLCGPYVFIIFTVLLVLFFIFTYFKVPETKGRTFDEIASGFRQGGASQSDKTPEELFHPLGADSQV
# [19] = target: T1, Solute carrier family 2, facilitated glucose transporter member 1 (Rattus norvegicus); assay: Blockade of rat Glut1 expressed in CHO cells assessed as inhibition of [14C]dehydroascorbic acid uptake by scintillation spectrometry; assay type: cell-based
# [20] = target: T2, Solute carrier family 2, facilitated glucose transporter member 3 (Homo sapiens) (UniProt P11169); assay: Blockade of human Glut3 expressed in CHO cells assessed as inhibition of 2-[1,2-3H(N)]deoxy-D-glucose uptake by scintillation spectrometry; assay type: cell-based
# T2 sequence (whole entry): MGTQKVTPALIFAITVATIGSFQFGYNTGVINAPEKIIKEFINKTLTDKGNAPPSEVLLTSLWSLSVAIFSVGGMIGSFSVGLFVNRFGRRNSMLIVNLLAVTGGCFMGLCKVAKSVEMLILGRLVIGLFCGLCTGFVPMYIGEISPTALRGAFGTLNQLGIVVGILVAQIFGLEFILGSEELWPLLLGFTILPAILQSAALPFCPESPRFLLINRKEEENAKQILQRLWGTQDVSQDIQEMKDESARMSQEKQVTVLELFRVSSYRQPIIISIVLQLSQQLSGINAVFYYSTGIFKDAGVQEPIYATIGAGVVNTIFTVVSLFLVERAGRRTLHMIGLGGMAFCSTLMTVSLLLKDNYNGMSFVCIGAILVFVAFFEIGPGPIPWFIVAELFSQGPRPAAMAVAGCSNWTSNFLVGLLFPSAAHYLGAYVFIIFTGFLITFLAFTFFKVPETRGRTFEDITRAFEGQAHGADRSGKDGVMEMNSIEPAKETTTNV
# [21] = target: T2, Solute carrier family 2, facilitated glucose transporter member 3 (Homo sapiens); assay: Blockade of human Glut3 expressed in CHO cells assessed as inhibition of [14C]dehydroascorbic acid uptake by scintillation spectrometry; assay type: cell-based
smiles,measurement,setting,value
Oc1ccc(/C=C/c2cc(O)cc(O)c2)cc1 [RESVERATROL],inhibition at 73 µM,U-937 [1],50%
same,inhibition at 75 µM,HL-60 [2],50%
same,pKi,U-937 [3],4.05
same,pKi,HL-60 [4],4.07
same,Activity,U-937 [5],Active
same,Activity,HL-60 [6],Active
same,inhibition (INH),U-937 [7],20%
same,inhibition (INH),HL-60 [8],20%
same,inhibition (INH),U-937 [9],10%
same,inhibition (INH),HL-60 [10],10%
same,Activity,U-937 [11],Dose-dependent effect
same,Activity,HL-60 [12],Dose-dependent effect
same,inhibition at 38 µM,U-937 [13],50%
same,inhibition at 32 µM,HL-60 [14],50%
same,pKi,U-937 [15],4.46
same,Activity,U-937 [16],Active
same,Activity,HL-60 [17],Active
same,Activity,[18],Active
same,Activity,[19],Active
same,Activity,[20],Active
same,Activity,[21],Active
